Each structure is given as a SMILES string.

For 40 compounds, CC50, IC50 and selectivity ratio results are on record in ChEMBL document CHEMBL5634085, “Design, synthesis and antitrypanosomatid activity of 2-nitroimidazole-3,5-disubstituted isoxazole compounds based on benznidazole” (Eur J Med Chem, 2023).

Series [1] is described as follows: Cytotoxicity against monkey LLC-MK2 cells incubated for 72 hrs by MTT assay. It counts as toxicity, cell-based, Macaca mulatta. Particulars: rhesus monkey. Background: Formazan colour is commonly taken as a measure of viable cells.
In another series the test system is Trypanosoma cruzi. The series can be described thus: Antitrypanosomal activity against Trypanosoma cruzi Tulahuen lacZ expressing beta-galactosidase amastigotes infected in monkey LLC-MK2 cells assessed as inhibition of amastigotes pre-infected in cells for 48 hrs followed by compound addition and measured after 72 hrs by CPRG reagent based absorbance analysis. The format is functional, organism-based.

The nature of series [2]: Selectivity index, ratio of CC50 for monkey LLC-MK2 cells to IC50 for Trypanosoma cruzi Tulahuen lacZ expressing beta-galactosidase amastigotes infected monkey LLC-MK2 cells. It counts as toxicity. Particulars: read-out: Ratio CC50/IC50.
A further series has as its system Leishmania amazonensis. The series can be described thus: Antileishmanial activity against Leishmania amazonensis IFLA/BR/1967/PH8 amastigotes infected in mouse peritoneal macrophage assessed as inhibition of parasite growth pre-infected in cells for 4 hrs followed by compound addition and measured after 24 hrs by Giemsa staining based analysis. The format is functional, organism-based. Particulars: IFLA/BR/1967/PH8, Peritoneal macrophage.

Series [3] can be described thus: Selectivity index, ratio of CC50 for cytotoxicity against monkey LLC-MK2 cells to IC50 for antileishmanial activity against Leishmania amazonensis IFLA/BR/1967/PH8 amastigotes infected in mouse peritoneal macrophage. It counts as toxicity, cell-based. Particulars: read-out: Ratio CC50/IC50.

Usually CC50 stands for the concentration at which the toxic effect on the cells reaches its halfway point. The term IC50 denotes the concentration that inhibits the measured activity by half. Turning to `O=[N+]([O-])c1ccc(-c2cc(Cn3ccnc3[N+](=O)[O-])on2)cc1`, the CC50 at 72 h in series [1] is 46.1 µM. Besides, the IC50 was determined as 18.3 µM with Trypanosoma cruzi and 32.4 µM in the series with Leishmania amazonensis. The selectivity ratio in series [2] worked out at 2.5; in series [3] it was 1.4.
The corresponding values for `O=[N+]([O-])c1nccn1Cc1cc(-c2ccc(N3CCCCC3)cc2)no1` are more than 50 µM, 7.5 µM, 31.1 µM, more than 6.7 and more than 1.6.
In series [1], `O=[N+]([O-])c1nccn1Cc1cc(-c2cccnc2)no1` registered a 50% cytotoxic concentration (CC50) at 72 h of more than 50 µM. The half-maximal inhibitory concentration (IC50) in the series with Trypanosoma cruzi was 7.8 µM; in the series with Leishmania amazonensis, 73.8 µM. For the same compound, the selectivity ratio in series [2] is more than 6.4; in series [3], more than 0.7.
The corresponding values for `O=[N+]([O-])c1nccn1Cc1cc(-c2ccc(F)c(F)c2)no1` are more than 50 µM, 6.5 µM, 17.7 µM, more than 7.6 and more than 2.8.
In the same order, the values of `O=[N+]([O-])c1nccn1Cc1cc(-c2ccc(C(F)(F)F)cc2)no1` are 18.9 µM, 23 µM, 18 µM, 0.8 and 1.
The compound `O=[N+]([O-])c1cccc(-c2cc(Cn3ccnc3[N+](=O)[O-])on2)c1` displayed a CC50 at 72 h in series [1] of more than 50 µM. Further, the IC50 in the series on Trypanosoma cruzi is 5.3 µM; with Leishmania amazonensis, 35.1 µM. In addition, the results for the selectivity ratio in series [2] and in series [3] were more than 9.4 and more than 1.4, respectively.
With `COc1ccccc1-c1cc(Cn2ccnc2[N+](=O)[O-])on1`, the CC50 at 72 h in series [1] was more than 50 µM. Further, the IC50 in the series with Trypanosoma cruzi was determined as 4.6 µM; with Leishmania amazonensis, 12.7 µM. In addition, the selectivity ratio was more than 10.9 in series [2] and more than 3.9 in series [3].
`O=[N+]([O-])c1nccn1Cc1cc(-c2cccc(Cl)c2)no1` returned a CC50 at 72 h in series [1] of more than 50 µM. Further, the IC50 with Trypanosoma cruzi amounted to 9.3 µM; in the series on Leishmania amazonensis, 10.2 µM. Further, the selectivity ratio in series [2] is more than 5.3; in series [3], more than 4.9.
Turning to `N#Cc1ccc(-c2cc(Cn3ccnc3[N+](=O)[O-])on2)cc1`, in series [1], the CC50 at 72 h is more than 50 µM. The IC50 was more than 100 µM with Trypanosoma cruzi and 34.6 µM with Leishmania amazonensis. Besides, the selectivity ratio was more than 0.6 in series [2] and more than 1.4 in series [3].
Regarding `N=C(N)c1ccc(OCCCCCOc2ccc(C(=N)N)cc2)cc1` [PENTAMIDINE], the half-maximal inhibitory concentration (IC50) in the series on Leishmania amazonensis turned out to be 16.8 µM.
Consider `O=[N+]([O-])c1nccn1Cc1cc(-c2ccc(N3CCCC3)cc2)no1`, for which, in series [1], the CC50 at 72 h is more than 50 µM. Also, the IC50 in the series with Trypanosoma cruzi is 2.3 µM; in the series on Leishmania amazonensis, 9.9 µM. Further, the selectivity ratio in series [2] was more than 21.7; in series [3], more than 5.
`COc1ccc(-c2cc(Cn3ccnc3[N+](=O)[O-])on2)cc1O` yielded a CC50 at 72 h in series [1] of more than 50 µM. Further, the IC50 in the series on Trypanosoma cruzi came out at 3 µM; in the series with Leishmania amazonensis it was 17.1 µM. In addition, the selectivity ratio was more than 16.6 in series [2] and more than 2.9 in series [3].
In the same order, the values of `CSc1ccc(-c2cc(Cn3ccnc3[N+](=O)[O-])on2)cc1` are more than 50 µM, 31.4 µM, 22.4 µM, more than 1.6 and more than 2.2.
The corresponding values for `O=[N+]([O-])c1nccn1Cc1cc(-c2ccc(OC(F)(F)F)cc2)no1` are more than 50 µM, 15.2 µM, 35.6 µM, more than 3.3 and more than 1.4.
Turning to `COc1cc(-n2cc(-c3ccc4c(c3)OCO4)nn2)cc(OC)c1OC`, the IC50 in the series with Leishmania amazonensis was found to be 4.4 µM.
On the same count and under the same terms, then `COc1ccc(-c2cn(-c3cc(OC)c(OC)c(OC)c3)nn2)cc1OC`, with 5.6 µM.
`O=[N+]([O-])c1nccn1Cc1cc(-c2ccc(N3CCN(c4ccccc4)CC3)cc2)no1` registered a CC50 at 72 h in series [1] of more than 50 µM. In addition, the IC50 with Trypanosoma cruzi and in the series on Leishmania amazonensis was more than 100 µM in each case. Also, the selectivity ratio in series [2] was more than 1; in series [3], more than 0.5.
Consider `O=[N+]([O-])c1nccn1Cc1cc(-c2ccc(N3CCCCCC3)cc2)no1`, for which the CC50 at 72 h in series [1] was more than 50 µM. The IC50 with Trypanosoma cruzi was 3.9 µM; with Leishmania amazonensis, 25.1 µM. The selectivity ratio in series [2] is more than 12.8; in series [3], more than 1.9.
The corresponding values for `O=[N+]([O-])c1nccn1Cc1cc(-c2ccc(Br)cc2)no1` are 43 µM, 5.1 µM, 17.4 µM, 8.4 and more than 2.5.
The corresponding values for `O=[N+]([O-])c1nccn1Cc1cc(-c2ccncc2)no1` are more than 50 µM, 3.1 µM, 16.3 µM, more than 16.3 and more than 3.
With `COc1ccc(-c2cc(-c3cc(OC)c(OC)c(OC)c3)on2)cc1OC`, the IC50 with Leishmania amazonensis worked out at 0.4 µM.
The compound `COc1cccc(-c2cc(Cn3ccnc3[N+](=O)[O-])on2)c1` returned a CC50 at 72 h in series [1] of more than 50 µM. Besides, the IC50 in the series with Trypanosoma cruzi came to 11.2 µM; in the series with Leishmania amazonensis, 12.5 µM. Further, the selectivity ratio in series [2] is more than 4.4; in series [3] it was more than 4.
For `O=[N+]([O-])c1nccn1Cc1cc(-c2ccc(Cl)cc2)no1`, in series [1], half-maximal cytotoxicity (CC50 at 72 h) was put at 48 µM. In addition, the concentration for half-maximal inhibition (IC50) with Trypanosoma cruzi is 1.5 µM; in the series with Leishmania amazonensis it was 26.6 µM. The selectivity ratio in series [2] was 32.5; in series [3] it was 1.8.
As for `COc1cc(-c2cc(-c3ccc4c(c3)OCO4)no2)cc(OC)c1OC`, in the series on Leishmania amazonensis, the IC50 was determined as 1.4 µM.
In series [1], `O=[N+]([O-])c1nccn1Cc1cc(-c2ccccn2)no1` registered a 50% cytotoxic concentration (CC50) at 72 h of more than 50 µM. Moreover, the values for the IC50 in the series on Trypanosoma cruzi and in the series with Leishmania amazonensis were 7.5 µM and 37.8 µM, respectively. Further, the selectivity ratio in series [2] was more than 6.7; in series [3] it was more than 1.3.
For `O=[N+]([O-])c1nccn1Cc1cc(-c2ccc(Cl)cc2Cl)no1`, half-maximal cytotoxicity in series [1] (CC50 at 72 h) was put at 43.2 µM. Moreover, the IC50 in the series with Trypanosoma cruzi amounted to 3.7 µM; with Leishmania amazonensis, 33.7 µM. Also, the selectivity ratio in series [2] is more than 11.4; in series [3] it was 1.3.
`O=[N+]([O-])c1nccn1Cc1cc(-c2ccc(F)cc2)no1`: the cytotoxic concentration (CC50) at 72 h in series [1] is more than 50 µM. Also, the IC50 in the series on Trypanosoma cruzi was 3.3 µM; in the series on Leishmania amazonensis, 24.2 µM. Also, the values for the selectivity ratio in series [2] and in series [3] were more than 15.3 and more than 2.1, respectively.
Turning to `COc1ccc(-c2cc(Cn3ccnc3[N+](=O)[O-])on2)cc1`, in series [1], the CC50 at 72 h was more than 50 µM. The figures for the IC50 in the series with Trypanosoma cruzi and in the series with Leishmania amazonensis were 1.9 µM and 17.3 µM, respectively. In addition, the selectivity ratio in series [2] was more than 25.6; in series [3], more than 2.9.
`COc1cc(-c2cc(-c3cc(OC)c(OC)c(OC)c3)on2)cc(OC)c1OC`: in the series with Leishmania amazonensis, the IC50 is 2.9 µM.
`O=[N+]([O-])c1nccn1Cc1cc(-c2ccccc2)no1`: the CC50 at 72 h in series [1] is more than 50 µM. Also, the IC50 with Trypanosoma cruzi worked out at 4 µM; in the series with Leishmania amazonensis, 33.1 µM. Moreover, the results for the selectivity ratio in series [2] and in series [3] were more than 12.3 and more than 1.5, respectively.
For `COc1cc(OC)cc(-c2cc(Cn3ccnc3[N+](=O)[O-])on2)c1`, the CC50 at 72 h in series [1] was more than 50 µM. Moreover, the IC50 in the series on Trypanosoma cruzi is 6 µM; in the series on Leishmania amazonensis it was 10.1 µM. Further, the selectivity ratio in series [2] is more than 8.3; in series [3], more than 4.9.
In the same order, the values of `N#Cc1cccc(-c2cc(Cn3ccnc3[N+](=O)[O-])on2)c1` are more than 50 µM, 40.4 µM, 36.6 µM, more than 1.2 and more than 1.4.
The corresponding values for `O=[N+]([O-])c1nccn1Cc1cc(-c2ccc(Cl)c(Cl)c2)no1` are more than 50 µM, 2.2 µM, 18.9 µM, more than 22.2 and more than 2.6.
Consider `COc1ccc(-c2cc(-c3cc(OC)c(OC)c(OC)c3)no2)cc1OC`, for which the IC50 with Leishmania amazonensis turned out to be 0.7 µM.
For the compound `COc1cc(-c2cn(-c3cc(OC)c(OC)c(OC)c3)nn2)cc(OC)c1OC`, the half-inhibitory concentration (IC50) in the series with Leishmania amazonensis is 9.4 µM.
The compound `COc1cc(-c2cc(Cn3ccnc3[N+](=O)[O-])on2)cc(OC)c1OC` returned a 50% cytotoxic concentration (CC50) at 72 h in series [1] of more than 50 µM. Further, the IC50 turned out to be 1.9 µM in the series on Trypanosoma cruzi and 14.6 µM in the series with Leishmania amazonensis. The results for the selectivity ratio in series [2] and in series [3] were more than 25.9 and more than 3.4, respectively.
Take `Cc1ccc(-c2cc(Cn3ccnc3[N+](=O)[O-])on2)cc1`: the CC50 at 72 h in series [1] is more than 50 µM. The IC50 with Trypanosoma cruzi turned out to be 9.3 µM; in the series with Leishmania amazonensis it was 26.7 µM. Also, the results for the selectivity ratio in series [2] and in series [3] were more than 5.4 and more than 1.9, respectively.
As for `COc1ccc(-n2cc(-c3cc(OC)c(OC)c(OC)c3)nn2)cc1OC`, in the series on Leishmania amazonensis, the IC50 was found to be 29.2 µM.
As to `C[C@@H]1[C@H](O)[C@@H](C)/C=C/C=C/C=C/C=C/C=C/C=C/C=C/[C@H](O[C@@H]2O[C@H](C)[C@@H](O)[C@H](N)[C@@H]2O)C[C@@H]2O[C@](O)(C[C@@H](O)C[C@@H](O)[C@H](O)CC[C@@H](O)C[C@@H](O)CC(=O)O[C@H]1C)C[C@H](O)[C@H]2C(=O)O` [AMPHOTERICIN B], the half-maximal cytotoxic concentration (CC50) at 72 h in series [1] stood at 22.8 µM. The IC50 in the series on Leishmania amazonensis turned out to be 2.3 µM. In addition, the selectivity ratio in series [3] worked out at 9.87.
The compound `O=[N+]([O-])c1nccn1Cc1cc(-c2ccc(N3CCOCC3)cc2)no1` gave a CC50 at 72 h in series [1] of more than 50 µM. For the same compound, the values for the IC50 in the series on Trypanosoma cruzi and in the series on Leishmania amazonensis were 2.8 µM and 54.1 µM, respectively. Also, the selectivity ratio in series [2] is more than 18; in series [3], more than 0.9.
